The results in this text go back to ChEMBL document CHEMBL1201862, “PubChem BioAssay data set” (2004).

Test systems include Malme-3M; Hs-578T; CAKI-1; NCI-H460; SN12C; SK-MEL-2; TK-10; RXF 393; K562; COLO 205; UO-31; HCT-15; LOX IMVI; SK-MEL-28; UACC-257; NCI-H226; OVCAR-8; MDA-N.
What all share (assay): NCI-60 cell line screen, 48 h

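Cells were grown in 96-well plates and exposed to each compound for 48 hours at five concentrations; endpoints were interpolated linearly between bracketing concentrations, or set to the highest concentration if not reached. The concentration for 50% growth inhibition is given as GI50.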 The source made the active and inactive calls. No stated cut-off is given here; in the data, active = GI50 up to about 1.1 µM and inactive = higher.

Consider `ClCc1nc2ccccc2[nH]1`, for which the GI50 is 34.5 µM (inactive) in the experiment on Malme-3M; > 100 µM (inactive) in the experiment on Hs-578T; > 100 µM (inactive) in the experiment on CAKI-1; > 100 µM (inactive) in the experiment with NCI-H460; > 100 µM (inactive) in the experiment on SN12C; > 100 µM (inactive) in the experiment on SK-MEL-2. Moreover, the GI50 in the experiment on TK-10 was > 100 µM (inactive); in the experiment on RXF 393, > 100 µM (inactive); in the experiment with K562, > 100 µM (inactive); with COLO 205, > 100 µM (inactive); in the experiment with UO-31 it was > 100 µM (inactive); with HCT-15, over 100 µM. The GI50 with LOX IMVI was 37.2 µM (inactive); in the experiment with SK-MEL-28 it was > 100 µM (inactive); with UACC-257, > 100 µM (inactive); with NCI-H226, > 100 µM (inactive); with OVCAR-8 it was > 100 µM (inactive).

In the case of `CN(C)c1ccc(/C=C2\N=C(c3ccccc3)N(c3ccc4c(c3)Sc3cc(N5C(=O)/C(=C/c6ccc(N(C)C)cc6)N=C5c5ccccc5)ccc3N4)C2=O)cc1`, the GI50 was 27.1 µM (inactive) in the experiment on Hs-578T; 17.9 µM (inactive) with CAKI-1; 23.9 µM (inactive) with NCI-H460; 19.1 µM (inactive) in the experiment with SN12C; 18.6 µM (inactive) in the experiment on SK-MEL-2; 17.2 µM (inactive) in the experiment on TK-10. Also, the GI50 in the experiment on K562 was 29.6 µM (inactive); in the experiment on COLO 205, > 100 µM (inactive); in the experiment with UO-31 it was 18.2 µM (inactive); with MDA-N, 53.8 µM (inactive); in the experiment on HCT-15 it was 49.2 µM; in the experiment with LOX IMVI, 19.5 µM (inactive). For the same compound, the values for the GI50 with SK-MEL-28, in the experiment on UACC-257 and in the experiment on OVCAR-8 were 50.8 µM (inactive), 19.7 µM (inactive) and 18.1 µM (inactive), respectively.

Regarding `CCN(CC)CCNc1n[n+]([O-])c2ccccc2[n+]1[O-]`, the GI50 in the experiment with Malme-3M is 6.76 µM (inactive); in the experiment on Hs-578T, 28.6 µM (inactive); in the experiment on SN12C, 3.91 µM (inactive); with TK-10, 11.3 µM (inactive); in the experiment with RXF 393, 4.65 µM (inactive); in the experiment on K562, 1.72 µM (inactive). The GI50 was 5.96 µM (inactive) in the experiment with COLO 205; 19 µM (inactive) in the experiment on UO-31; 9.73 µM (inactive) in the experiment with MDA-N; 3.92 µM in the experiment with HCT-15; 9.86 µM (inactive) in the experiment on LOX IMVI; 39.4 µM (inactive) with SK-MEL-28. Moreover, the GI50 with NCI-H226 was 7.21 µM (inactive); with OVCAR-8 it was 7.76 µM (inactive).

As for `CC[C@H]1C[C@@H](O)[C@@H]2[C@H](O)[C@H](O)CN2C1`, the GI50 in the experiment with Malme-3M, in the experiment with Hs-578T, with NCI-H460, with SN12C, in the experiment on SK-MEL-2 and in the experiment on TK-10 was > 100 µM (inactive) throughout. Moreover, the GI50 was > 100 µM (inactive) with K562; > 100 µM (inactive) in the experiment with MDA-N; over 100 µM in the experiment on HCT-15; > 100 µM (inactive) in the experiment with LOX IMVI; > 100 µM (inactive) with SK-MEL-28; > 100 µM (inactive) in the experiment with UACC-257. Also, the GI50 in the experiment on NCI-H226 and in the experiment on OVCAR-8 was > 100 µM (inactive) throughout.

Regarding `O=C(OCC1OC(c2nn[nH]n2)C(OC(=O)c2ccccc2)C1OC(=O)c1ccccc1)c1ccccc1` (stereo not drawn), the GI50 was > 100 µM (inactive) in the experiment on Malme-3M; > 100 µM (inactive) with CAKI-1; 71 µM (inactive) in the experiment on NCI-H460; > 100 µM (inactive) in the experiment with SN12C; > 100 µM (inactive) in the experiment on SK-MEL-2; > 100 µM (inactive) in the experiment with TK-10. For the same compound, the GI50 was 41.9 µM (inactive) in the experiment on RXF 393; 46.2 µM (inactive) with K562; > 100 µM (inactive) with COLO 205; > 100 µM (inactive) in the experiment on UO-31; > 100 µM (inactive) in the experiment with MDA-N; over 100 µM in the experiment with HCT-15. Also, the GI50 is > 100 µM (inactive) in the experiment with LOX IMVI, > 100 µM (inactive) in the experiment on UACC-257, 79.8 µM (inactive) in the experiment with NCI-H226 and > 100 µM (inactive) with OVCAR-8.

For `CC12CCC(/C(=N/c3cc(C(F)(F)F)cc(C(F)(F)F)c3)C1=O)C2(C)C` (stereo not drawn), the GI50 with Malme-3M was 33.4 µM (inactive); in the experiment on CAKI-1 it was 44 µM (inactive); with NCI-H460 it was 33.4 µM (inactive); in the experiment with SK-MEL-2, 18.8 µM (inactive); in the experiment with TK-10, 37.2 µM (inactive); in the experiment on RXF 393, 12.3 µM (inactive). For the same compound, the GI50 was 29.6 µM (inactive) with K562; 19.1 µM (inactive) in the experiment with COLO 205; 52 µM (inactive) with UO-31; 29.1 µM in the experiment with HCT-15; 15.2 µM (inactive) in the experiment with LOX IMVI; 25.8 µM (inactive) in the experiment with SK-MEL-28. Besides, the values for the GI50 in the experiment with UACC-257, with NCI-H226 and in the experiment with OVCAR-8 were 46.6 µM (inactive), 86.7 µM (inactive) and 81.5 µM (inactive), respectively.

Consider `O=C1c2ccccc2-c2cc3ccccc3c(=O)n21`, for which the GI50 in the experiment with Hs-578T, in the experiment on NCI-H460, in the experiment with SN12C, in the experiment with SK-MEL-2, with TK-10 and with K562 was > 100 µM (inactive) throughout. The GI50 with COLO 205 was > 100 µM (inactive); in the experiment on UO-31, 49.1 µM (inactive); in the experiment on MDA-N it was > 100 µM (inactive); with HCT-15, over 100 µM; in the experiment on LOX IMVI, > 100 µM (inactive); in the experiment on SK-MEL-28, > 100 µM (inactive). Further, the GI50 in the experiment on UACC-257 and with OVCAR-8 was > 100 µM (inactive) throughout.

Turning to `CCOC(=O)c1c(N2CCOCC2)[nH]c(=O)c(C(c2ccc(N(C)C)cc2)c2c(O)c(C(=O)OCC)c(N3CCOCC3)[nH]c2=O)c1O`, the GI50 in the experiment with Malme-3M, in the experiment on Hs-578T, in the experiment with CAKI-1, with NCI-H460, in the experiment with SN12C and with SK-MEL-2 was > 100 µM (inactive) in each case. In addition, the GI50 is > 100 µM (inactive) in the experiment with TK-10; > 100 µM (inactive) in the experiment on RXF 393; > 100 µM (inactive) with K562; > 100 µM (inactive) in the experiment on COLO 205; > 100 µM (inactive) with UO-31; over 100 µM in the experiment with HCT-15. The GI50 with LOX IMVI was 59 µM (inactive); in the experiment on SK-MEL-28, > 100 µM (inactive); in the experiment on UACC-257, > 100 µM (inactive); with NCI-H226 it was > 100 µM (inactive); in the experiment on OVCAR-8 it was > 100 µM (inactive).

`C=C1CC(Cn2ccc(=O)[nH]c2=O)(c2ccc(OC)cc2)OC1=O` (stereo not drawn): the GI50 is 10.1 µM (inactive) with Malme-3M; 18.1 µM (inactive) in the experiment with Hs-578T; 6.34 µM (inactive) in the experiment with CAKI-1; 40.6 µM (inactive) in the experiment on NCI-H460; 13.8 µM (inactive) with SN12C; 12.8 µM (inactive) with SK-MEL-2. In addition, the GI50 was 10 µM (inactive) in the experiment with TK-10; 3.2 µM (inactive) in the experiment on K562; 4.14 µM (inactive) in the experiment on COLO 205; 17.2 µM (inactive) in the experiment with UO-31; 12.7 µM (inactive) with MDA-N; 14.8 µM in the experiment with HCT-15. Also, the GI50 in the experiment with LOX IMVI is 10.9 µM (inactive); in the experiment on SK-MEL-28 it was 18 µM (inactive); in the experiment with UACC-257, 14.8 µM (inactive); in the experiment with NCI-H226 it was 16.3 µM (inactive); in the experiment on OVCAR-8, 20.1 µM (inactive).

On to `Cc1ccc2nc(-c3ccc(N)c(I)c3)sc2c1`, for which the GI50 was 36.1 µM (inactive) in the experiment on Malme-3M; 31 µM (inactive) with Hs-578T; > 100 µM (inactive) in the experiment on CAKI-1; 18.2 µM (inactive) with NCI-H460; 17.9 µM (inactive) in the experiment with SK-MEL-2; 0.39 µM (active) with TK-10. Further, the GI50 in the experiment with RXF 393 is 24 µM (inactive); with K562 it was 21.3 µM (inactive); with COLO 205, 17.1 µM (inactive); in the experiment on UO-31 it was 7.06 µM (inactive); in the experiment with HCT-15, 6.11 µM; in the experiment with SK-MEL-28, > 100 µM (inactive). Besides, the figures for the GI50 with UACC-257, with NCI-H226 and with OVCAR-8 were 23.7 µM (inactive), 16 µM (inactive) and 67.5 µM (inactive), respectively.

Regarding `Clc1nc(Cl)c(Cl)c(-c2ccccc2)n1`, the GI50 in the experiment on Malme-3M is 5.61 µM (inactive); in the experiment with Hs-578T, 2.73 µM (inactive); with NCI-H460, 9.46 µM (inactive); in the experiment on SN12C, 20 µM (inactive); with SK-MEL-2, 15.4 µM (inactive); in the experiment with TK-10, 18.8 µM (inactive). In addition, the GI50 was 13.6 µM (inactive) in the experiment on RXF 393; 1.44 µM (inactive) in the experiment on K562; 18.1 µM (inactive) with UO-31; 11.4 µM with HCT-15; 1.86 µM (inactive) in the experiment on LOX IMVI; 16 µM (inactive) in the experiment with SK-MEL-28. Further, the figures for the GI50 in the experiment on UACC-257, with NCI-H226 and in the experiment with OVCAR-8 were 20.5 µM (inactive), 24.3 µM (inactive) and 10.4 µM (inactive), respectively.

Turning to `CC(O[Si](C)(C)C(C)(C)C)[C@H](NC(=O)OCC(Cl)(Cl)Cl)C(=O)O` (stereo partly drawn), the GI50 with Malme-3M, in the experiment with Hs-578T, in the experiment on NCI-H460, with SN12C, in the experiment on TK-10 and in the experiment with RXF 393 was > 100 µM (inactive) throughout. Further, the GI50 in the experiment with K562 was > 100 µM (inactive); in the experiment on COLO 205 it was > 100 µM (inactive); in the experiment with UO-31 it was > 100 µM (inactive); in the experiment with HCT-15, over 100 µM; in the experiment on LOX IMVI it was > 10 µM (inactive); in the experiment on SK-MEL-28, > 100 µM (inactive). The GI50 in the experiment with UACC-257, with NCI-H226 and in the experiment on OVCAR-8 was > 100 µM (inactive) in each case.

Regarding `Cc1cc2ccccc2n2c1nc1ccc(O)cc12`, the GI50 in the experiment on Malme-3M is > 10 µM (inactive); in the experiment on Hs-578T, > 10 µM (inactive); in the experiment with CAKI-1, > 10 µM (inactive); in the experiment on NCI-H460, 5.36 µM (inactive); with SN12C, 9.35 µM (inactive); with SK-MEL-2, > 10 µM (inactive). The GI50 is > 10 µM (inactive) with TK-10; > 10 µM (inactive) in the experiment with RXF 393; > 10 µM (inactive) in the experiment with K562; > 10 µM (inactive) in the experiment with COLO 205; over 10 µM with HCT-15; > 10 µM (inactive) in the experiment with SK-MEL-28. Besides, the GI50 is > 10 µM (inactive) with UACC-257 and 7.29 µM (inactive) in the experiment on OVCAR-8.
